The source of these data is patent publication US20140163012A1, “PYRIDO-/AZEPINO-BENZOFURAN AND PYRIDO-/AZEPINO-BENZOTHIOPHENE MCH-1 ANTAGONISTS, METHODS OF MAKING, AND USE THEREOF” (Albany Molecular Research, Inc., priority 2012, published 2014).

For one data set, the target named is human MCH-1 receptor (Homo sapiens, UniProt Q99705). Briefly: Binding assay for human melanin-concentrating hormone (MCH-1) receptor, radioligand displacement on CHO-K1 cell membranes. Particulars: for inhibition at 1 µM: read-out: MCH1 % inhibition @ 1 uM.
Chain of human MCH-1 receptor (Q99705 whole entry): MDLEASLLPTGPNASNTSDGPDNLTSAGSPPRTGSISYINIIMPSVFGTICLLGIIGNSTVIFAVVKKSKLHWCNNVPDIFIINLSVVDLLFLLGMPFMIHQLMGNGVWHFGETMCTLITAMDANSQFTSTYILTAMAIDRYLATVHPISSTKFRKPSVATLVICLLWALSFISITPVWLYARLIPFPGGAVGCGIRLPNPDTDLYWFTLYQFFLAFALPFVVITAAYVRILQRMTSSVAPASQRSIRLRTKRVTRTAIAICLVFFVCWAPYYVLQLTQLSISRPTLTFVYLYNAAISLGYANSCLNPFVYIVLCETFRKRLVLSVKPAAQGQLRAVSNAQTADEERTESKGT

Experimental for human MCH-1 receptor: Nonspecific binding was determined in the presence of 50 μM 1-(5-(4-cyanophenyl)bicyclo[3.1.0]hexan-2-yl)-3-(4-fluoro-3-(trifluoromethyl)phenyl)-1-(3-(4-methylpiperazin-1-yl)propyl)urea. […] The filters were counted for radioactivity in a liquid scintillation counter (Tri-Carb 2100TR, Packard) using a scintillation cocktail (Ultima Gold MV, Perkin Elmer).
The results are expressed as a percent inhibition of the control radioligand specific binding. The IC50 value (concentration causing a half-maximal inhibition of control specific binding) and Hill coefficient (nH) were determined by non-linear regression analysis of the competition curve using Hill equation curve fitting.

On to `Cl.O=c1cc(CCc2ccc(Cl)cn2)ccn1-c1ccc2c3c(oc2c1)CCNC3` [Example 105, 4-(2-(5-Chloropyridin-2-yl)ethyl)-1-(1,2,3,4-tetrahydrobenzofuro[3,2-c]pyridin-7-yl)pyridin-2(1H)-one hydrochloride], for which the melting point – broadly, the temperature, or range, at which the solid turns liquid – was in the range of 285 to 288 °C. Also, at human MCH-1 receptor, the affinity corresponds to a Ki of 12 nM.

`COc1ccc(-c2ccn(-c3ccc4c5c(oc4c3)CCNC5)c(=O)c2)c(F)c1.Cl` [Example 111, 4-(2-Fluoro-4-methoxyphenyl)-1-(1,2,3,4-tetrahydrobenzofuro[3,2-c]pyridin-7-yl)pyridin-2(1H)-one hydrochloride] returned a melting point of 282 to 284 °C. At human MCH-1 receptor, the Ki – broadly, a measure of affinity in units of concentration, obtained from inhibition or displacement – amounted to 16 nM.

Consider `COc1ccc(-c2ccn(-c3ccc4c5c(oc4c3)CCNC5)c(=O)c2)c(Cl)c1.Cl` [Example 112, 4-(2-Chloro-4-methoxyphenyl)-1-(1,2,3,4-tetrahydrobenzofuro[3,2-c]pyridin-7-yl)pyridin-2(1H)-one hydrochloride], for which the melting point lay in the range of 294 to 297 °C. The compound further had a Ki on human MCH-1 receptor of 6.9 nM.

`Cl.O=c1cc(OCc2ccc(C(F)(F)F)nn2)ccn1-c1ccc2c3c(oc2c1)CCNC3` [Example 113, 1-(1,2,3,4-Tetrahydrobenzofuro[3,2-c]pyridin-7-yl)-4-((6-(trifluoromethyl)pyridazin-3-yl)methoxy)pyridin-2(1H)-one hydrochloride] registered a melting point of 289 to 291 °C. At human MCH-1 receptor, this compound displayed an inhibitory constant (Ki) of 20 nM.

Compound `Cc1cc(OC(F)(F)F)ccc1-c1ccn(-c2ccc3c4c(oc3c2)CCNC4)c(=O)c1.Cl` [Example 114, 4-(2-Methyl-4-(trifluoromethoxy)phenyl)-1-(1,2,3,4-tetrahydrobenzofuro[3,2-c]pyridin-7-yl)pyridin-2(1H)-one hydrochloride] had a melting point of 299 to 301 °C. The compound further returned a Ki on human MCH-1 receptor of 7.3 nM.

The compound `Cl.O=c1cc(OCc2ccccc2)ccn1-c1ccc2sc3c(c2c1)CNCCC3` [Example 118, 4-Benzyloxy-1-(2,3,4,5-tetrahydro-1H-benzo[4,5]thieno[3,2-c]azepin-9-yl)pyridin-2(1H)-one hydrochloride] gave a melting point of 176 to 178 °C. Further, the inhibition (usually the relative decrease from the control value, in per cent) at 1 µM on human MCH-1 receptor came out at 7.7%.

The compound `Cl.O=c1cc(OCc2ccc(F)cn2)ccn1-c1ccc2sc3c(c2c1)CNCCC3` [Example 119, 4-((5-Fluoropyridin-2-yl)methoxy)-1-(2,3,4,5-tetrahydro-1H-benzo[4,5]thieno[3,2-c]azepin-9-yl)pyridin-2(1H)-one hydrochloride] returned a melting point of 170 to 172 °C. The inhibition at 1 µM at human MCH-1 receptor is -2.6%.

Turning to `Cl.O=c1cc(OCc2ccc(F)cn2)ccn1-c1ccc2sc3c(c2c1)CCCNC3` [Example 120, 4-(5-Fluoropyridin-2-ylmethoxy)-1-(2,3,4,5-tetrahydro-1H-benzo[4,5]thieno[2,3-c]azepin-7-yl)pyridin-2(1H)-one hydrochloride], the melting point lay within 180 to 182 °C. For the same compound, at human MCH-1 receptor, the inhibition at 1 µM was 1.3%.
